In patent US20240325398A1, “COMBINATION THERAPIES” (Infinity Pharmaceuticals, Inc., priority 2014, published 2024):

What was measured:
[1] = test system: U-2932; assay: Combination study, ATPLite 72 h, dose matrix (Synergy Score, CI50)
[2] = test system: OCI-Ly7; assay: as above; settings: combination with Compound 1, 72 h
[3] = test system: DOHH-2; assay: as above; settings: combination with Compound 1, 72 h
[4] = test system: SUDHL6; assay: Compound 1 with dexamethasone, CellTiter-Glo viability 72 h, combination index; type: cell-based; settings: combination with Compound 1; SUDHL6 cells; CellTiter-Glo 72 h; FIG. 12
Description: The effects of Compound 1 with dexamethasone were examined in a panel of cell lines. Cells were cultured and assayed as follows. Compound 1 was serially diluted with cell culture medium and various DMSO concentrations. The top concentration of Compound 1 exposed to cells was 3 uM for cell lines other than WSU-NHL and DOHH2. For WSU-NHL and DOHH2 cell lines, the top concentration of Compound 1 exposed to the cells was 0.3 uM. Dexamethasone was serially diluted in culture media and phosphate buffered saline (PBS). The top concentration of dexamethasone used on cells was 3 uM. Cells were at least 73% viable and were counted and diluted for plating at a density of about 92,000 cell/mL, 130 uL cells per well in 96 well plates for SUDHL6, Karpas 422, SUDHL4, WSU-NHL, RL, and DOHH2 cell lines. The SUDHL10 cell line was plated at a density of about 46,000 cells/mL, 130 uL cells per well in 96 well plates.
Various concentrations of Compound 1 and various combinations of dexamethasone were added to various wells of cells. Single agents (Compound 1 or dexamethasone alone) were also added to some wells of cells. Cells were incubated with compounds for 72 hours. To assay for effects of the compounds on cell viability, a CellTiter-Glo® luminescent cell viability assay (commercially available) was used. To each plate of cells, 100 uL CellTiter-Glo reagent was added, incubated, and luminescence quantified using a […].
The result for cell line SUDHL6 is depicted in FIG. 12 and in Table 12. […] Table 12 depicts combination index (CI) values for different combinations of dexamethasone/Compound 1 concentrations.

[5] = combination with CAL-101, Example 2
[6] = combination with Cmpd 1, Example 2
[7] = combination with Compound 1, 72 h

C[C@@H]1C[C@H]2[C@@H]3CCC4=CC(=O)C=C[C@]4(C)[C@@]3(F)[C@@H](O)C[C@]2(C)[C@@]1(O)C(=O)CO [dexamethasone, (8S,9R,10S,11S,13S,14S,16R,17R)-9-Fluoro-11,17-dihydroxy-17-(2-hydroxyacetyl)-10,13,16-trimethyl-6,7,8,9,10,11,12,13,14,15,16,17-dodecahydro-3H-cyclopenta[a]phenanthren-3-one]
synergy: synergy of the combination [4]
S (S=0.01 to <0.5): CI50 growth inhibition [1, 5] | CI50 inhibition [1, 5] | CI50 growth inhibition [1, 6] | CI50 inhibition [1, 6] | CI50 growth inhibition [1, 7] | CI50 inhibition [1, 7] | CI50 growth inhibition [2] | CI50 inhibition [2] | CI50 growth inhibition [3]
A2 (A2=1 to <3): Synergy Score growth inhibition [1, 5] | Synergy Score inhibition [1, 5] | Synergy Score inhibition [1, 6] | Synergy Score inhibition [1, 7]
T (T=0.5 to <0.7): CI50 inhibition [3]
A3 (A3=>3): Synergy Score growth inhibition [1, 6] | Synergy Score growth inhibition [1, 7] | Synergy Score growth inhibition [2] | Synergy Score inhibition [2] | Synergy Score growth inhibition [3] | Synergy Score inhibition [3]
